Reference: ChEMBL document CHEMBL4229467, “Acyl Glucuronide Metabolites of 6-Chloro-5-[4-(1-hydroxycyclobutyl)phenyl]-1 H-indole-3-carboxylic Acid (PF-06409577) and Related Indole-3-carboxylic Acid Derivatives are Direct Activators of Adenosine Monophosphate-Activated Protein Kinase (AMPK)” (J Med Chem, 2018)

Key:
[1] = in vitro; conditions: human, plasma
Description: Protein binding in human plasma assessed as unbound fraction

[2] = test system: Hepatocyte; conditions: human, hepatocytes, 4 h, 10 µM
Description: Retention time of the compound in human hepatocytes at 10 uM after 4 hrs by HPLC-UV analysis

[3] = Half life in rat hepatocytes; type: ADME, cell-based, Hepatocyte
[4] = physchem; conditions: in vivo, pH 7.4
[5] = in vivo; conditions: cynomolgus monkey, plasma, iv, 1 mg/kg
[6] = Half life in Wistar Han rat at 0.5 mg/kg, iv by LC-MS/MS analysis; type: ADME, organism-based; conditions: in vivo
[7] = Drug recovery in Wistar Han rat urine assessed as unchanged parent compound level at 0.5 mg/kg, iv by LC-MS/MS analysis; type: ADME, organism-based; conditions: read-out: Drug recovery
[8] = in vivo; conditions: cynomolgus monkey, urine, iv, 1 mg/kg
Description: Drug recovery in cynomolgus monkey urine assessed as unchanged parent compound level at 1 mg/kg, iv by LC-MS/MS analysis

[9] = Intrinsic clearance in monkey hepatocytes assessed per million cells; type: ADME, cell-based, Macaca mulatta, Hepatocyte; conditions: rhesus monkey, read-out: CLH
[10] = Half life in human primary hepatocytes at 10 uM; type: ADME, cell-based, Hepatocyte
[11] = Half life in human hepatocytes; type: ADME, cell-based, Hepatocyte
[12] = in vivo; conditions: cynomolgus monkey, iv, 1 mg/kg
Description: Volume of distribution at steady state in cynomolgus monkey at 1 mg/kg, iv by LC-MS/MS analysis

[13] = Plasma clearance in Wistar Han rat at 0.5 mg/kg, iv by LC-MS/MS analysis; type: ADME, organism-based
[14] = AUC (0 to 24 hrs) in Wistar Han rat at 0.5 mg/kg, iv by LC-MS/MS analysis; type: ADME, organism-based; design: time < 24 hr, dose 0.5 mg/kg, route intravenous; conditions: in vivo
[15] = Half life in monkey hepatocytes; type: ADME, cell-based, Macaca mulatta, Hepatocyte; conditions: rhesus monkey
[16] = in vivo; conditions: cynomolgus monkey, iv, 1 mg/kg; remark: listed apart in the source
[17] = Intrinsic clearance in human hepatocytes assessed per million cells; type: ADME, cell-based, Hepatocyte; conditions: read-out: CLH
[18] = Drug level in human hepatocytes treated with 6-chloro-5-[4-(1-hydroxycyclobutyl)phenyl]-1H-indole-3-carboxylic acid at 10 uM after 4 hrs by HPLC-UV analysis; type: ADME, cell-based, Hepatocyte
[19] = Intrinsic clearance in rat hepatocytes assessed per million cells; type: ADME, cell-based, Hepatocyte; conditions: read-out: CLH
[20] = Intrinsic clearance in human primary hepatocytes assessed per million cells; type: ADME, cell-based, Hepatocyte; conditions: read-out: CLH
[21] = test system: Cynomolgus monkey; assay: AUC (0 to 24 hrs) in cynomolgus monkey assessed as 6-chloro-5-[4-(1-hydroxycyclobutyl)phenyl]-1H-indole-3-carboxylic acid level at 0.5 mg/kg, iv by LC-MS/MS analysis; type: ADME, organism-based, Macaca fascicularis; design: dose 0.5 mg/kg, time < 24 hr, route intravenous; conditions: in vivo
[22] = in vivo; conditions: cynomolgus monkey, iv, 1 mg/kg; remark: listed apart in the source
Description: Half life in cynomolgus monkey at 1 mg/kg, iv by LC-MS/MS analysis

[23] = Volume of distribution at steady state in Wistar Han rat at 0.5 mg/kg, iv by LC-MS/MS analysis; type: ADME, organism-based; conditions: in vivo, read-out: Vdss
[24] = in vitro; conditions: dog, MDCK
Description: Apparent passive permeability of the compound in RRCK cells by FACS analysis

[25] = in vitro; conditions: rhesus monkey, plasma
Description: Protein binding in monkey plasma assessed as unbound fraction

[26] = in vitro; conditions: rat, plasma
Description: Protein binding in rat plasma assessed as unbound fraction

[27] = test system: Rattus norvegicus; assay: AUC (0 to 24 hrs) in Wistar Han rat assessed as 6-chloro-5-[4-(1-hydroxycyclobutyl)phenyl]-1H-indole-3-carboxylic acid level at 0.5 mg/kg, iv by LC-MS/MS analysis; type: ADME, organism-based; design: time < 24 hr, dose 0.5 mg/kg, route intravenous; conditions: in vivo
[28] = Half life of the compound in deuteriated phosphate buffer at pH 7.4 at 37 degC measured every 25 mins for 21 hrs by 1H NMR analysis; type: physicochemical
[29] = Drug metabolism in human hepatocytes assessed as (2S,3S,4S,5R,6S)-6-((4,6-Difluoro-5-(4-((S)-tetrahydro-2H-pyran-2-yl)phenyl-1H-indole-3-carbonyl)oxy)-3,4,5-trihydroxytetrahydro-2H-pyran-2-carboxylic acid formation at 10 uM after 4 hrs by HPLC-UV analysis; type: ADME, cell-based, Hepatocyte
[30] = biological target: AMPK alpha2/beta2/gamma1 (Homo sapiens, UniProt O43741+P54619+P54646); assay: biochemical
Description: Activation of full-length recombinant N-terminal His-tagged human AMPKalpha2beta2gamma1 expressed in Escherichia coli BL21 cells using Cy-5 SAMS peptide as substrate preincubated for 60 mins followed by substrate addition and measured after 60 mins in presence of PP2a by TR-FRET assay

[31] = biological target: AMP-activated protein kinase (AMPK) alpha-1/beta-1/gamma-1 (Homo sapiens) (UniProt P54619+Q9Y478+Q13131)
Description: Binding affinity to Bap-tagged human AMPKalpha1beta1gamma1 expressed in Escherichia coli BL21 cells assessed as dissociation half life by SPR analysis

[32] = biological target: AMPK alpha2/beta2/gamma3 (Homo sapiens, UniProt O43741+P54646+Q9UGI9); assay: biochemical
Description: Activation of full-length recombinant N-terminal His-tagged human AMPKalpha2beta2gamma3 expressed in Escherichia coli BL21 cells using Cy-5 SAMS peptide as substrate preincubated for 60 mins followed by substrate addition and measured after 60 mins in presence of PP2a by TR-FRET assay

[33] = biological target: AMPK alpha1/beta2/gamma1 (Homo sapiens, UniProt O43741+P54619+Q13131); assay: biochemical
Description: Activation of full-length recombinant N-terminal His-tagged human AMPKalpha1beta2gamma1 expressed in Escherichia coli BL21 cells using Cy-5 SAMS peptide as substrate preincubated for 60 mins followed by substrate addition and measured after 60 mins in presence of PP2a by TR-FRET assay

[34] = biological target: T1, AMP-activated protein kinase (AMPK) alpha-1/beta-1/gamma-1 (Homo sapiens, UniProt P54619+Q13131+Q9Y478); assay: biochemical
Description: Activation of full-length recombinant N-terminal His-tagged human AMPKalpha1beta1gamma1 expressed in Escherichia coli BL21 cells using Cy-5 SAMS peptide as substrate preincubated for 60 mins followed by substrate addition and measured after 60 mins in presence of PP2a by TR-FRET assay

[35] = biological target: AMPK alpha2/beta1/gamma1 (Homo sapiens, UniProt P54619+P54646+Q9Y478); assay: biochemical
Description: Activation of full-length recombinant N-terminal His-tagged human AMPKalpha2beta1gamma1 expressed in Escherichia coli BL21 cells using Cy-5 SAMS peptide as substrate preincubated for 60 mins followed by substrate addition and measured after 60 mins in presence of PP2a by TR-FRET assay

[36] = Drug level in human hepatocytes treated with (S)-4,6-difluoro-5-(4-(tetrahydro-2H-pyran-2-yl)phenyl)-1H-indole-3-carboxylic acid at 10 uM after 4 hrs by HPLC-UV analysis; type: ADME, cell-based, Hepatocyte
[37] = biological target: T1, AMP-activated protein kinase (AMPK) alpha-1/beta-1/gamma-1; assay: biochemical; remark: listed apart in the source
Description: Binding affinity to Bap-tagged human AMPKalpha1beta1gamma1 expressed in Escherichia coli BL21 cells by SPR analysis

[38] = Drug level in human hepatocytes treated with 6-chloro-5-(6-(dimethylamino)-2-methoxypyridin-3-yl)-1H-indole-3-carboxylic acid at 10 uM after 4 hrs by HPLC-UV analysis; type: ADME, cell-based, Hepatocyte

T1 sequence (P54619 whole entry): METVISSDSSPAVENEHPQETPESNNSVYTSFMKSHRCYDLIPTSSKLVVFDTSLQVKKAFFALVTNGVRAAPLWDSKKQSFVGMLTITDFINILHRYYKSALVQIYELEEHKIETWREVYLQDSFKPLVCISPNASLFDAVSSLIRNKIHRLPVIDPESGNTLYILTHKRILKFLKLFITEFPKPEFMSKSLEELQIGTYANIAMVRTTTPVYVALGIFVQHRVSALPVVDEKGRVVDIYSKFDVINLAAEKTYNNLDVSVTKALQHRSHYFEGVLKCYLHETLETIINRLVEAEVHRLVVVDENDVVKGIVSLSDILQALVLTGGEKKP
T1 sequence (Q9Y478 whole entry): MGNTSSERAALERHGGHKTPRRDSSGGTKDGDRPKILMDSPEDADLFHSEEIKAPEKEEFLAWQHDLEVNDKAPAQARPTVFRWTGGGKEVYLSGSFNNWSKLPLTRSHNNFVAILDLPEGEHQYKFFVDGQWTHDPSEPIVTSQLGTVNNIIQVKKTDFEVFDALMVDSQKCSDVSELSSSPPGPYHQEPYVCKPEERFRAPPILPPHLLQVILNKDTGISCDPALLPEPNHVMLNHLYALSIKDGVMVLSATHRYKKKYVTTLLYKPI
T1 sequence (Q13131 whole entry): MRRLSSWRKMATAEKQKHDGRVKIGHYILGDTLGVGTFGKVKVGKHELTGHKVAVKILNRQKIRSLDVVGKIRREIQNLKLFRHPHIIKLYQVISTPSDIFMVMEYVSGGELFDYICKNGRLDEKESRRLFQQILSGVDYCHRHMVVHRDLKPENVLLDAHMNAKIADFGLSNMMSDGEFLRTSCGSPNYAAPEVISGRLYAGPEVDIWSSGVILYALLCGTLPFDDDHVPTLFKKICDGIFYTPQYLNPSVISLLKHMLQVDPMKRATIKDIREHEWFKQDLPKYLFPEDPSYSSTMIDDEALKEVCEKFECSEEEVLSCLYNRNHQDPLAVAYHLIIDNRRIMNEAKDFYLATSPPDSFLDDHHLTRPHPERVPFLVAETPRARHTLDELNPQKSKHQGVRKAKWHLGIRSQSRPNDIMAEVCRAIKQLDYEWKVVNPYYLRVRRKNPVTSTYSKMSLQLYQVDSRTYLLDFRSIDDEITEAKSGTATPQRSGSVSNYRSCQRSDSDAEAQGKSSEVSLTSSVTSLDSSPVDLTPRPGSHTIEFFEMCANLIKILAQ
Chain of AMPK alpha2/beta2/gamma1 (P54646 whole entry): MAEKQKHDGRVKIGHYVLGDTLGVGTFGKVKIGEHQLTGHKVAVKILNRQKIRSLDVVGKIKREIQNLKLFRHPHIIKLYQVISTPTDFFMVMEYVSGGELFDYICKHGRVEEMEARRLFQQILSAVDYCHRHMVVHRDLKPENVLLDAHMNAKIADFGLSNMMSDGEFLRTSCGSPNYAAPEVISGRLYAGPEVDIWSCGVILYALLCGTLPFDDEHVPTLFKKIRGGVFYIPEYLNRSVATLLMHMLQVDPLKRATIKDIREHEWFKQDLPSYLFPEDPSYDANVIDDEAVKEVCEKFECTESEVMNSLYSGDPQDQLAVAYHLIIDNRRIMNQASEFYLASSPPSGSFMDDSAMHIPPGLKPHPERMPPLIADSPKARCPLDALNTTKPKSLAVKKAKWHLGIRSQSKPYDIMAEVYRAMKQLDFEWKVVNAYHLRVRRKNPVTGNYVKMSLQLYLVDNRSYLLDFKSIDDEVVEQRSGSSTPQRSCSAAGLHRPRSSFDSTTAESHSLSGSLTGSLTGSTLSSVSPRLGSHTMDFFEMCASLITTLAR
Chain of AMPK alpha2/beta2/gamma1 (O43741 whole entry): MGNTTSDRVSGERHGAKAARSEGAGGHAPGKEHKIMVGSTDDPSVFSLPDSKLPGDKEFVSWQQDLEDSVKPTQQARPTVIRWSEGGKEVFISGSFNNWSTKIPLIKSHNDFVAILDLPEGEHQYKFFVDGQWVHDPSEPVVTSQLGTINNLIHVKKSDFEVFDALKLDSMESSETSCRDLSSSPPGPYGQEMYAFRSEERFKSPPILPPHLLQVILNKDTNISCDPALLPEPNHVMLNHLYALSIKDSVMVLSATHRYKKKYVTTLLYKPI
Chain of AMPK alpha2/beta2/gamma1 (P54619 whole entry): as the sequence (P54619 whole entry) above
Chain of AMPK alpha2/beta1/gamma1 (P54646 whole entry): as the sequence (P54646 whole entry) above
Chain of AMPK alpha2/beta1/gamma1 (P54619 whole entry): as the sequence (P54619 whole entry) above
Chain of AMPK alpha2/beta1/gamma1 (Q9Y478 whole entry): as the sequence (Q9Y478 whole entry) above
Chain of AMPK alpha2/beta2/gamma3 (P54646 whole entry): as the sequence (P54646 whole entry) above
Chain of AMPK alpha2/beta2/gamma3 (O43741 whole entry): as the sequence (O43741 whole entry) above
Chain of AMPK alpha2/beta2/gamma3 (Q9UGI9 whole entry): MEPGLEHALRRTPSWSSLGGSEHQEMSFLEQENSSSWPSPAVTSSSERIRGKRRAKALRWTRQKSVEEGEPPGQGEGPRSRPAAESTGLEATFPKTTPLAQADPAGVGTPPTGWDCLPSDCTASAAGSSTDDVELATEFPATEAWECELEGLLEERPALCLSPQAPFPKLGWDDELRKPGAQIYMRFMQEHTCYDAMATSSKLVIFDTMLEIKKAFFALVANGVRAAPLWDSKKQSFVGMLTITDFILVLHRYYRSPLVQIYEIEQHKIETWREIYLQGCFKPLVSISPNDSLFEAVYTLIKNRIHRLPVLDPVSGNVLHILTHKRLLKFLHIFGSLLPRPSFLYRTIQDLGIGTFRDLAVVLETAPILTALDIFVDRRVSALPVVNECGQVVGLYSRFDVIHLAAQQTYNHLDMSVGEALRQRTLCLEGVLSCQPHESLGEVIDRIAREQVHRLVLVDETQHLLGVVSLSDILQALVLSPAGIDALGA
Chain of AMPK alpha1/beta2/gamma1 (O43741 whole entry): as the sequence (O43741 whole entry) above
Chain of AMPK alpha1/beta2/gamma1 (P54619 whole entry): as the sequence (P54619 whole entry) above
Chain of AMPK alpha1/beta2/gamma1 (Q13131 whole entry): as the sequence (Q13131 whole entry) above
Chain of AMP-activated protein kinase (AMPK) alpha-1/beta-1/gamma-1 (Homo sapiens) (P54619 whole entry): as the sequence (P54619 whole entry) above
Chain of AMP-activated protein kinase (AMPK) alpha-1/beta-1/gamma-1 (Homo sapiens) (Q13131 whole entry partner): as the sequence (Q13131 whole entry) above
Chain of AMP-activated protein kinase (AMPK) alpha-1/beta-1/gamma-1 (Homo sapiens) (Q9Y478 2-270 partner limits assumed): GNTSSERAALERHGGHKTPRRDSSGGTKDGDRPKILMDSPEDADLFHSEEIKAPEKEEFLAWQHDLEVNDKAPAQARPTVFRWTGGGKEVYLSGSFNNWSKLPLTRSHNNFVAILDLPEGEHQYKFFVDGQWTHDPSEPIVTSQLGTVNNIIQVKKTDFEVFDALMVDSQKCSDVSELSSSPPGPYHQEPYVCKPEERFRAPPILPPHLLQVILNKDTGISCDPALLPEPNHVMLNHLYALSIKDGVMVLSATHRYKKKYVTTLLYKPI

Compound: O=C(O[C@@H]1O[C@H](C(=O)O)[C@@H](O)[C@H](O)[C@H]1O)c1c[nH]c2cc(Cl)c(-c3ccc(C4(O)CCC4)cc3)cc12
- fraction unbound [1]: 0.019
- Retention_time [2]: 7.09 min
- half-life [3]: > 4 h
- logD at 1 h [4]: -0.14
- clearance [5]: 9.85 mL/min/kg
- half-life [6]: 6.96 h
- dose excreted [7]: 1%
- dose excreted [8]: 9.8%
- hepatocyte CLint [9]: < 6 µL/min/1e6 cells
- half-life at 10 µM [10]: > 6.67 h
- half-life [11]: > 4 h
- Vd [12]: 4.52 L/kg
- clearance [13]: 0.99 mL/min/kg
- AUC(0-t) at 24 h [14]: 8850 ng·h/mL
- half-life [15]: > 4 h
- AUC(0-t) at 24 h [16]: 1750 ng·h/mL
- hepatocyte CLint [17]: < 6 µL/min/1e6 cells
- Drug metabolism [18]: Metabolite_Detected
- hepatocyte CLint [19]: < 6 µL/min/1e6 cells
- hepatocyte CLint [20]: < 3 µL/min/1e6 cells
- AUC [21]: 303 ng·h/mL
- half-life [22]: 18 h
- Vd [23]: 0.4 L/kg
- Papp [24]: 0.6 ×10⁻⁶ cm/s
- fraction unbound [25]: 0.028
- fraction unbound [26]: 0.0018
- AUC [27]: 101 ng·h/mL
- half-life [28]: > 21 h

Compound: O=C(O)c1c[nH]c2cc(F)c(-c3ccc([C@@H]4CCCCO4)cc3)c(F)c12
- Retention_time [2]: 9.72 min
- logD at 1 h [4]: 1.8
- Drug metabolism [29]: Metabolite_Detected

Compound: O=C(NO)c1c[nH]c2cc(Cl)c(-c3ccc(C4(O)CCC4)cc3)cc12
- Retention_time [2]: 7.25 min
- Drug metabolism [18]: Metabolite_Detected

Compound: O=C(O[C@@H]1O[C@H](C(=O)O)[C@@H](O)[C@H](O)[C@H]1O)c1c[nH]c2cc(F)c(-c3ccc([C@@H]4CCCCO4)cc3)c(F)c12
- Retention_time [2]: 8.37 min
- EC50 [30]: > 40000 nM
- logD at 1 h [4]: 0.08
- T1/2 [31]: 15.3 s
- EC50 [32]: > 40000 nM
- EC50 [33]: > 40000 nM
- EC50 [34]: 59 nM
- EC50 [35]: 332 nM
- Papp [24]: 0.3 ×10⁻⁶ cm/s
- Drug metabolism [36]: Metabolite_Detected
- Kd [37]: 198 nM
- half-life [28]: > 21 h

Compound: COc1nc(N(C)C)ccc1-c1cc2c(C(=O)O[C@@H]3O[C@H](C(=O)O)[C@@H](O)[C@H](O)[C@H]3O)c[nH]c2cc1Cl
- Retention_time [2]: 7.96 min
- logD at 1 h [4]: -0.05
- half-life at 10 µM [10]: > 6.67 h
- hepatocyte CLint [20]: < 3 µL/min/1e6 cells
- Drug metabolism [38]: Metabolite_Detected
- Papp [24]: 0.3 ×10⁻⁶ cm/s
- half-life [28]: > 21 h

Compound: COc1nc(N(C)C)ccc1-c1cc2c(C(=O)O)c[nH]c2cc1Cl
- logD at 1 h [4]: 2.3
